The source of these data is patent publication US5420143A, “Piperidine derivatives for treating allergy” (Kowa Co., Ltd., priority 1993, dated 1995).

The structures appear in SMILES notation.

Assay [1] has as its system ileum isolated from guinea pigs, contraction induced by histamine. The experiment in a line: Inhibition of histamine-induced contraction of isolated guinea pig ileum (antihistamine activity). The conditions noted are these: Average ± S.D.; histamine 1×10^-5 M; 30 minutes incubation with test compound; test compound concentration not given. The protocol: (§1) Antihistamine activity and antileukotriene activity:
(§2) The first three constant constractions induced by histamine (1×10^-5 M) or leukotriene D4 (1×10^-8 M) were used as the reference for the calculation of the inhibitory ratio. After repeated washings until contraction movement recurred, ileal strip was incubated with the test compound for 30 minutes. The contraction test was then conducted again using histamine or leukotriene D4. The inhibitory ratio (%) of the test compound on the ileum was calculated according to the following equation: [formula]

For assay [2], the system named is ileum isolated from guinea pigs, contraction induced by leukotriene D4. The experiment in a line: Inhibition of leukotriene D4 induced contraction of isolated guinea pig ileum (antileukotriene activity). The conditions noted are these: Average ± S.D.; leukotriene D4 1×10^-8 M; 30 minutes incubation with test compound; test compound concentration not given. The protocol: as §1, §2

The target of assay [3] is T1, Leukotriene D4 receptors (Cavia porcellus, UniProt Q2NNR5).
T1 construct: Preparation of guinea-pig lung membrane protein; from tissue; host or cells: guinea-pig lung membranes
T1 sequence (Q2NNR5 1-340): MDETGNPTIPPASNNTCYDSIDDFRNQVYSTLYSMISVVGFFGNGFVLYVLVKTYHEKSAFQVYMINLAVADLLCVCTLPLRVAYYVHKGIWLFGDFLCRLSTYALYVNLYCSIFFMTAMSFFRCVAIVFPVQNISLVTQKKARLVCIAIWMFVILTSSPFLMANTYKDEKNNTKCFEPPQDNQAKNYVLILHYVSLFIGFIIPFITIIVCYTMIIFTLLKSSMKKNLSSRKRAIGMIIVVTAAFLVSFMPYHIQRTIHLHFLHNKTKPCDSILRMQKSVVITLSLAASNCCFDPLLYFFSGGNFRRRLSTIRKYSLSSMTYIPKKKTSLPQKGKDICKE
Kind of assay: Binding assay on Leukotriene D4 receptors (guinea-pig lung membrane protein, [^3 H]-leukotriene D4). An excerpt:
Binding assay on Leukotriene D4 receptors:
a) Preparation of guinea-pig lung membrane protein:

With `CCCc1c(OCC(O)COc2ccc3c(=O)cc(C(=O)O)oc3c2CCC)ccc(C(C)=O)c1O` (centres unmarked) [FPL-55712], the “Inhibition vs histamine-induced contraction (%)” value in assay [1] was 0%. In addition, the “Inhibition vs leukotriene D4 induced contraction (%)” value in assay [2] stood at 11 ± 4%.
`O=c1cc(-c2nnn[nH]2)oc2cc(OCCCN3CCC(=C(c4ccccc4)c4ccccc4)CC3)ccc12` [Compound (1), 7-[3-(4-Diphenylmethylenepiperidin-1-yl)propyloxy]-2-(5-tetrazolyl)-4-oxo-4H-benzopyran]: the “Inhibition vs histamine-induced contraction (%)” value in assay [1] is listed as 52 ± 7%. Moreover, the “Inhibition vs leukotriene D4 induced contraction (%)” value in assay [2] is 15 ± 1%. Further, the “antileukotriene activity (nature of the activity)” value in assay [3] (binding assay on leukotriene D4 receptors) is listed as “antagonistic”. Also, in assay [3] (read-out: binding affinity on leukotriene D4 receptors (Kd)), the dissociation constant (Kd) – broadly, a measure of binding affinity in units of concentration – is 2320 nM.
As for `CC(C)(C)c1ccc(C(O)CCCN2CCC(C(O)(c3ccccc3)c3ccccc3)CC2)cc1` (centres unmarked) [Terfenadine], in assay [1], the “Inhibition vs histamine-induced contraction (%)” value was 5 ± 1%. The “Inhibition vs leukotriene D4 induced contraction (%)” value in assay [2] was found to be 0%.
